How the values were obtained:
[1] = tested on: PD-1 positive (transduced) KG-1 cells; assay: IFN gamma secretion assay in PD-1 transduced KG-1 cells (Example 11); type: cell-based, human; details: ratio of EC50 in PD-1 positive and parental KG-1 cells
Protocol: The KG-1 cell line was used to generate a PD-1 expressing cell line and furthermore, to measure IFNγ release upon incubation with TL-18 variants and corresponding TL-18 immunocytokines.
PD-1 expressing cell line generation: Briefly, KG-1 cells were transduced using lentiviral particles carrying the human PD-1 gene (PDCD1 NM_005018; Origene, CAT #: RC210364L3V) at a MOI (Multiplicity of Infection) of 30. Spinfection was performed at 1260 g during 90 min at 37° C. in the presence of 5 μg/ml of Polybrene and 10 mM of HEPES in complete culture media (RPMI, 10% FBS, 1% L-Glutamine). Five days after transduction, puromycin at a final concentration of 1 μg/ml was added to select for PD-1 positive cells. For culture maintenance, puromycin concentration was decreased to 0.5 μg/ml. Stable and homogenous expression of PD-1 was verified by surface staining (BD Pharmingen, #557860).
IFNγ release was assessed in PD-1 positive (transduced) KG-1 cells, as well as in the parental PD-1 negative cells. 0.5×10^5 cells were seeded into a 96-well U-bottom plate in culture media (RPMI, 10% FBS, […]) and stimulated with IL-18 variants/ICs for 20-24 h. The test items were diluted to 100 nM in culture medium, followed by 7 10-fold serial dilutions. The lowest concentration assessed was […]. After incubation, IFNγ release was measured using the LEGENDplex custom human mix and match KIT (Biolegend LEGENDplex™ Human IFN-γ Capture Bead B5, 13×#740942, LEGENDplex™ P 1 Essential Immune Response Panel Detection Abs, #740931, LEGENDplex™ Buffer Set A #740368). To this end, cell culture supernatant was collected and diluted 1:1 with Assay Buffer. Fluorescence measurements were done with a Quanteon Flow Cytometer from Acea Biosciences. For analysis, MFI values (median fluorescence intensity) were exported and plotted against concentrations used. The EC50 values (half maximal effective concentration) were calculated based on a variable slope and four parameter analysis using GraphPad PRISM software version 9.

[2] = molecular target: T1, human IL-18 binding protein isoform a (IL-18BPa) (Homo sapiens, UniProt O95998); assay: Cellular IL-18 Binding protein resistance assay in NK-92 cells (Example 13); type: cell-based; details: NK92 cells, IL-18 analyte 1 nM final, IL-18BPa titrated, 1 ng/ml IL-12; read-out: IC50 IL-18BP-mediated inhibition of IFNγ secretion
T1 sequence (O95998 31-194): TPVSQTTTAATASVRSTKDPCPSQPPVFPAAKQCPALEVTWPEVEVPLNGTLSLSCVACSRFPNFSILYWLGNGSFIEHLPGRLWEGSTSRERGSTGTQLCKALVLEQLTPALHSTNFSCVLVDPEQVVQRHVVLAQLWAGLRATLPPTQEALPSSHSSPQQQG
Protocol: The NK cell line NK-92 derived from a patient with lymphoma (ATCC, Cat #CRL-2407) was cultured in aMEM medium supplemented with 20% FCS-Glutamax, 25 μM B-mercaptoEthanol, and 100 IU/ml of recombinant Human Interleukin-2 (TL-2). On the day of experiment, cells were harvested and washed with aMEM medium without IL-2. After counting, cells were seeded at 100 000 cells/well in a 384 well titer plate and incubated at 37° C./5% CO2. Sixteen 2-fold serial dilutions of Fc fused human IL-18 binding protein isoform a (IL-18BPa; R&D systems, Cat #119-BP) were prepared in aMEM medium-1 ng/ml IL-12 containing 2 nM of each IL-18 variants and were added to the NK-92 cells. Final IL-18 analytes concentration was 1 nM and final IL-18BPa concentrations ranged from to 566 nM down to 17 pM.
After 16-20 h incubation at 37° C./5% CO2, 5 μl of supernatant were carefully transferred to a 384 microwells OPTIplate (Perkin Elmer; Cat #6007270) and Interferon-gamma (IFNγ) levels measured using the Human IFNγ AlphaLISA Assay Kit (Perkin Elmer, Cat #AL217C). Briefly, 10 μl of 2.5× AlphaLISA Anti-IFNγ acceptor beads and biotinylated Antibody Anti-IFNγ mix were added to the 5 μl of NK-92 supernatants and incubated for 1 h at room temperature under shaking. Under subdued light, 2.5 μl of 2× streptavidin (SA) donor beads were pipetted in each well and incubated for 30 min at room temperature under shaking. AlphaLisa signal was then measured on an Enspire plate reader (Perkin Elmer) using 680 and 615 nm as excitation and emission wavelengths respectively. Half maximal inhibitory concentration (IC50) was calculated based on a variable slope, four parameter analysis using GraphPad PRISM software.

Substance | PD-1^pos/PD-1^neg EC50 ratio [1] | IC50 [2] [nM]
SEQ ID NO: 1: native IL-18 wild-type sequence [reference compound] | 1.298 | 0.781
SEQ ID NO: 31: IL-18 polypeptide: C38A, C76A, C127A | 1.2 | 0.282
